This note sets out measurements from ChEMBL document CHEMBL1268830, “Efficient synthesis and biological evaluation of some 2,4-diamino-furo[2,3-d]pyrimidine derivatives” (Bioorg Med Chem Lett, 2010).

One assay deals with A549. Put plainly: Cytotoxicity against human A549 cells after 48 hrs by MTT assay. The class given is functional, cell-based. The following applies: A549, 48 h.
Assay [1] in a line: Cytotoxicity against human sSPC-A1 cells after 48 hrs by MTT assay. It is filed as functional, cell-based. The following applies: sSPC-A1, 48 h. In general terms: Tetrazolium dyes change colour on reduction, which living cells bring about.

Regarding `CCOC(=O)c1c(C)oc2nc(Nc3cccc(C)c3)nc(N3CCN(C)CC3)c12`, the results for the IC50 (in the assay with A549; in assay [1]) were 5.5 µM and 18.2 µM, respectively. Regarding `CCOC(=O)c1c(C)oc2nc(Nc3ccccc3)nc(N3CCOCC3)c12`, the results for the IC50 (in the assay with A549; in assay [1]) were 15.2 µM and 69 µM, respectively. For the compound `CCOC(=O)c1c(C)oc2nc(Nc3ccccc3)nc(NC(C)C)c12`, in the assay with A549, the midpoint of inhibition, the IC50, lay at 21.5 µM. As to `CCOC(=O)c1c(C)oc2nc(Nc3ccccc3)nc(N3CCN(C)CC3)c12`, the IC50 in the assay on A549 was found to be 0.8 µM; in assay [1] it was 26.1 µM. On to `CCOC(=O)c1c(C)oc2nc(Nc3cccc(C)c3)nc(N3CCOCC3)c12`, for which the concentration for half-maximal inhibition (IC50) came to 14 µM in the assay with A549 and 70.8 µM in assay [1].

Take `CCOC(=O)c1c(C)oc2nc(Nc3cccc(C)c3)nc(NC(C)C)c12`: the half-inhibitory concentration (IC50) amounted to 8.6 µM in the assay on A549 and 46.3 µM in assay [1]. The corresponding values for `CCOC(=O)c1c(C)oc2nc(Nc3ccccc3)nc(NCCO)c12` are 13 µM and 24.2 µM. As to `CCCCNc1nc(Nc2ccccc2)nc2oc(C)c(C(=O)OCC)c12`, the IC50 is 2.7 µM with A549 and 50.2 µM in assay [1]. Compound `CCCCNc1nc(Nc2cccc(C)c2)nc2oc(C)c(C(=O)OCC)c12` registered a half-maximal inhibitory concentration (IC50) with A549 of 9 µM. The same measure, in the same setting: the figure for `CCOC(=O)c1c(C)oc2nc(Nc3cccc(C)c3)nc(N(CC)CC)c12` is 8.8 µM.

One may read the IC50 as the concentration that inhibits the measured activity by half. A lower IC50 goes with higher potency.
